Results: patent US20140322198A1, “COMPOSITION COMPRISING VICENIN-2 HAVING A BENEFICIAL EFFECT ON NEUROLOGICAL AND/OR COGNITIVE FUNCTION” (priority 2011, published 2014)
Values after ≈ are worked out from the molar mass of the structure shown. “Also recorded” adds a separate entry of the source.

What was measured:
[1] = system: murine frontal cortex networks; experiment: Acute effects on cortical network activity (spike rate), MEA-neurochip multichannel recording; format: cell-based, mice
Protocol: Purpose of this example was the evaluation of the acute neuroactive effects of vicenin 2 (named AUC-V) and of Perilla extract (named AUC-P) comprising and standardized on Vicenin 2 on the neuronal activity of murine frontal cortex networks in vitro by means of electrophysiological multi-channel recordings. In this system, cells or tissues are grown directly on the chip surface and communicate via chemical and electrical signals. The MEA-neurochip allows the non-invasive, long-term, multisite recording of electrical signal patterns of primary neuronal networks. Said MEA-neurochip technology enables the characterization of network activity pattern on the single-cell action-potential level and on the level of complex neuronal networks as the basic functional units. This can also be used as a test system for investigating neuro-physiological properties of compounds. Despite the complexity, the neurophysiological action profiles of neuroactive compounds are sensitive and selective as well as robust and stable, allowing a precise pharmacological “fingerprinting” and the creation of a database of information on well-characterized neuroactive substances. The multiparametric description of the activity pattern changes caused by treatment of a brain-region-specific neuronal network is a sophisticated approach to quantify the complex effects of neuroactive agents, of unknown compounds, and of complex mixtures such as biological extracts. Correlation with well-known neuroactive substances and their specific pattern, available in specific databased, provides novel insights into the possible pharmacological and physiological mechanisms of modes of action of herbal preparations or isolated substances. […] The recorded electrical activity patterns were characterized by 200 features and their changes were statistically evaluated. […] Cultures were incubated at 37° C. in a 10% CO2 atmosphere until ready for use, which usually is four weeks to three months after seeding. […]

[2] = system: murine frontal cortex networks; experiment: Pattern recognition and classification of MEA activity patterns against NeuroProof database (105 substances); format: cell-based, mice; settings: for % of data records classified as reference substance: AUC-V, all
Protocol: Afterwards, a further analysis was carried out through a pattern-recognition analysis and through comparison with NeuroProof database to determine relevant mechanisms involved in the frontal cortex activity pattern induced changes by each substance.
To clarify the mode of action of the test substance on the activity of cortical networks these experiments were further analyzed using methods of pattern recognition. For each stable concentration activity phase the 200 spike train parameters were normalized by the native reference activity.
Using a feature selection algorithm, on the basis of the reference substances, the 40 most descriptive parameters for all 200 spike train parameters were selected. The rankings of activity features using various score methods based on classification experiments and comparing their total correct predictions were calculated. In this manner, the best results for a MDL (minimal description length) modified algorithm were obtained. A training data set with these 40 spike train parameters was established in the form of data records from the reference substances. An artificial neuronal network, multi layer feed forward network and back propagation algorithm without hidden units was then trained. The respective data records of the four substances were all subsequently classified. A classification against 105 substances in the database was carried out.

[3] = system: TNFα; experiment: Ex vivo TNFα secretion in LPS-stimulated human whole blood; format: cell-based; settings: ex vivo study, statement in words
Protocol: TNF alpha secretion [pg/ml] after co-incubation with LPS and Perilla extract of different concentration (1 μg/ml, 2.5 μg/ml and 50 μg/ml) against 450 μg/ml a benchmark blend, containing e.g. Boswellia extract, Omega 3 fatty acids, ALA and Curcumin. This study investigated the efficacy of Perilla extract comprising vicenin 2 to contribute to reduce TNFα levels. The study was designed as an ex vivo study, where human whole blood samples were treated with LPS, a bacterial blend, to stimulate inflammation which leads to an increase of the cytokine TNFα. Furthermore, the effect to reduce TNFα by Perilla extract was measured in comparison to a negative and positive control.

With `O=c1cc(-c2ccc(O)cc2)oc2c([C@@H]3O[C@H](CO)[C@@H](O)[C@H](O)[C@H]3O)c(O)c([C@@H]3O[C@H](CO)[C@@H](O)[C@H](O)[C@H]3O)c(O)c12` [vicenin 2, 5,7-Dihydroxy-2-(4-hydroxyphenyl)-6,8-bis[(2S,3R,4R,5S,6R)-3,4,5-trihydroxy-6 (hydroxymethyl)oxan-2-yl]chromen-4-one] the EC50 ([1]; Mus musculus, spike rate, frontal cortex networks in vitro, 9 accumulating concentrations, read-out: EC50 of decrease of the cortical network activity) was 0.002 ng/mL (≈ 0.00336 nM), the “effects on burst structure and oscillatory behaviour of the network” value ([1]; cortical network activity pattern) was “no affects on the burst structure, however on the oscillatory behaviour of the network” and the “maximum decrease to % of the native activity” value ([1]; cortical network activity, native activity = 100%) was 80%. For the same molecule, the “% of data records classified as reference substance” value (“% of data records classified” below) ([2]; classified as Amisulpride) was 15%, the “% of data records classified” value ([2]; classified as Atropinemethylbromide) was 12% and the “% of data records classified” value ([2]; classified as DPDPE) was 11%. For the same molecule, the “% of data records classified” value ([2]; classified as Enkephalin) was 14%, the “% of data records classified” value ([2]; classified as Eserine) was 15% and the “% of data records classified” value ([2]; classified as Indatraline) was 12%. The “% of data records classified” value ([2]; classified as Modafinil) was 12%, the “% of data records classified” value ([2]; classified as Nicotine) was 12% and the “% of data records classified” value ([2]; classified as Olanzapine) was 17%. For the same molecule, the “% of data records classified” value ([2]; classified as Sodium dodecyl sulfate) was 12%, the “activity identified by the classification” value ([2]; classification against reference substances (Amisulpride, Muscimol, Enkephalin)) was “sedative and anxiolytic activity; also recorded: enkephalin-like activity” and the “electrophysiological multi-channel recording pattern compared with positive controls” value ([2]; similarity to reference substances, in words) was “comparable with the pattern of the positive control eserine and nicotine; also recorded: comparable with the pattern of the positive control of carboxolone; also recorded: effects similar to amisulpride”. For the same molecule, the anti-inflammatory effects [3] was “anti-inflammatory effects”.
